Here are results for 32 compounds from PMC11600510 (Journal of Chemical Information and Modeling, 2024).

Data set [1] addresses T1, Spike RBD/ACE2 (19–615) interaction (Severe acute respiratory syndrome coronavirus 2, UniProt P0DTC2).
T1 construct: S protein RBD (aa residues 319–541) of SARS-CoV-2; expressed in transfected cells; host or cells: HEK293T
Description: cell-based. The format is cell-based, SARS-CoV-2.

The test system of the next data set is SARS-CoV-2 pseudovirus. Description: microbe, parasite or virus in culture. The format is cell-based. As to conditions: Severe acute respiratory syndrome-related coronavirus, SH-SY5Y, read-out: IC50, inhibition of pseudovirus cell entry.
Data set [2] concerns SARS-CoV-2. The data set is classed as cell-based.
For data set [3], the system named is SARS-CoV-2. Description: microbe, parasite or virus in culture. The format is cell-based.
A further data set concerns E. coli WP2 uvrA strain. Kind of data set: Microbial mutagenicity assay (Ames test). To be noted: positive control. Background: In the Ames test, an excess of revertant colonies over the control signals mutagenicity.
The mark [4] stands for this setting: HEK-293T, 48 h, read-out: suppression of Spike RBD/ACE2 (19–615) interaction.

What is called melting point is the temperature, or range, at which the solid turns liquid. `Oc1ccc(Cn2cnc3ccccc32)cc1O` [CKP-35, 4-((1H-Benzo[d]imidazol-1-yl)methyl)benzene-1,2-diol]: the melting point was 188 to 190 °C (dec.).

Compound `COc1cccc2c1ncn2Cc1ccc2cccnc2c1` [CKP-44, 7-((4-Methoxy-1H-benzo[d]imidazol-1-yl)methyl)quinoline] yielded a melting point of 161 to 162 °C. Moreover, the “activity on Spike RBD/ACE2 (19–615) interaction (in words)” value (“activity on Spike RBD/ACE2” below) in data set [1] is given as “did not exhibit any effect”.

As to `Oc1cccc2c1ncn2Cc1ccc2ccccc2c1` [CKP-26, 1-(Naphthalen-2-ylmethyl)-1H-benzo[d]imidazol-4-ol], the “activity on Spike RBD/ACE2” value in data set [1] was “none of the 4-hydroxy congeners of 28 and 29, compounds 31 (CKP-26) and 32 (CKP-30) maintained inhibitory activity”.

On to `COc1ccc(Cn2c[n+](C/C=C/c3ccc([N+](=O)[O-])cc3)c3ccccc32)cc1OC.[Br-]`, for which the melting point was 146 to 148 °C (dec.).

Turning to `O=[N+]([O-])c1cccc2c1ncn2Cc1ccc2cccnc2c1` [CKP-48, 7-((4-Nitro-1H-benzo[d]imidazol-1-yl)methyl)quinoline], the “activity on Spike RBD/ACE2” value in data set [1] is “showed activity”. For the same compound, the inhibition at 50 µM in data set [1] (setting [4]) stood at 36%.

`O=C1CC(c2ccc3ccccc3c2)c2ccc3ccccc3c2N1` (stereo not shown) [compound 5979742, 4-(2-naphthyl)-3,4-dihydrobenzo[h]quinolin-2(1H)-one]: the “effect on Spike RBD/ACE2 (19–615) interaction” value (“effect on Spike RBD/ACE2” for short) in data set [1] is on record as “suppressed the interaction”.

Consider `O=C(O)c1ccc2c(c1)C(=O)N(c1ccc(-c3nnc(-c4ccccc4)o3)cc1)C2=O` [compound 5733393, 1,3-dioxo-2-[4-(5-phenyl-1,3,4-oxadiazol-2-yl)phenyl]-5-isoindolinecarboxylic acid], for which the “effect on Spike RBD/ACE2” value in data set [1] is reported as “suppressed the interaction”.

`O=C(C=Cc1ccc(NC(=O)c2ccccc2-c2ccccc2C(=O)O)cc1)c1ccccc1` [compound 5755483, 2'-({[4-(3-oxo-3-phenyl-1-propen-1-yl)phenyl]amino}carbonyl)-2-biphenylcarboxylic acid]: the “effect on Spike RBD/ACE2” value in data set [1] is on record as “suppressed the interaction”.

For the compound `Oc1cccc2c1ncn2Cc1ccc(-c2ccccc2)cc1` [CKP-30, 1-([1,1′-Biphenyl]-4-ylmethyl)-1H-benzo[d]imidazol-4-ol], the melting point is 258 to 259 °C. Further, the “activity on Spike RBD/ACE2” value in data set [1] is “none of the 4-hydroxy congeners of 28 and 29, compounds 31 (CKP-26) and 32 (CKP-30) maintained inhibitory activity”.

On to `O=[N+]([O-])c1cccc2c1ncn2Cc1ccc2ccccc2c1` [CKP-20, 1-(Naphthalen-2-ylmethyl)-4-nitro-1H-benzo[d]imidazole], for which, in data set [1], the “activity on Spike RBD/ACE2” value is reported as “showed activity”. Further, the inhibition at 50 µM in data set [1] (setting [4]) stood at 51%.

In turn, `COc1cccc2c1[n+](C/C=C/c1ccc([N+](=O)[O-])cc1)cn2Cc1ccc2ccccc2c1.[Br-]` [CKP-42, (E)-4-Methoxy-1-(naphthalen-2-ylmethyl)-3-(3-(4-nitrophenyl)allyl)-1H-benzo[d]imidazol-3-ium Bromide] yielded a melting point of 227 to 228 °C. Moreover, the “activity on Spike RBD/ACE2” value in data set [1] is on record as “active”. For the same compound, in data set [1] (setting [4]), the inhibition at 10 µM was determined as 74%.

On to `COc1ccc(-c2ccccc2)cc1NCc1ccc2c(c1)OCO2` [compound 5465521, (1,3-benzodioxol-5-ylmethyl)(4-methoxy-3-biphenylyl)amine], for which, in data set [1], the “concentration-dependent suppression of Spike RBD/ACE2 (19–615) interaction” value is given as “suppressed Spike RBD/ACE2 (19–615) interaction in a concentration-dependent manner” and the “effect on Spike RBD/ACE2” value is “suppressed the interaction”.

Take `O=C(c1ccc(-c2ccccc2)cc1)n1cnc2ccccc21` [compound 5260662, 1-(4-biphenylylcarbonyl)-1H-benzimidazole]: in data set [1], the “concentration-dependent suppression of Spike RBD/ACE2 (19–615) interaction” value was “suppressed Spike RBD/ACE2 (19–615) interaction in a concentration-dependent manner” and the “effect on Spike RBD/ACE2” value was “suppressed the interaction”.

`O=[N+]([O-])c1ccc(/C=C/C[n+]2cn(Cc3ccc4ccccc4c3)c3ccccc32)cc1.[Br-]`: the melting point fell in the range of 189 to 191 °C.

A word on the IC50: it is the concentration needed to halve the response being measured. On to `O=c1c(Oc2ccc(-c3ccccc3)cc2)coc2cc(O)ccc12` [compound 6659989, 3-(4-biphenylyloxy)-7-hydroxy-4H-chromen-4-one], for which the IC50 in the data set on SARS-CoV-2 pseudovirus worked out at 3.2 ± 0.2 µM. In addition, in data set [1], the “concentration-dependent suppression of Spike RBD/ACE2 (19–615) interaction” value is given as “suppressed Spike RBD/ACE2 (19–615) interaction in a concentration-dependent manner” and the “effect on Spike RBD/ACE2” value is “suppressed the interaction”.

In the case of `O=C(c1ccc(NC(=O)C(c2ccccc2)c2ccccc2)cc1)c1ccc(C(=O)O)c(C(=O)O)c1` [compound 6048589, 4-{4-[(diphenylacetyl)amino]benzoyl}phthalic acid], the “effect on Spike RBD/ACE2” value in data set [1] is recorded as “suppressed the interaction”.

For the compound `O=[N+]([O-])c1ccc(/C=C/C[n+]2cn(Cc3ccc(-c4ccccc4)cc3)c3ccccc32)cc1.[Br-]`, the melting point is 236 to 238 °C (dec.).

`c1ccc2cc(Cn3cnc4ccccc43)ccc2c1` [CKP-22, 1-(Naphthalen-2-ylmethyl)-1H-benzo[d]imidazole] yielded a melting point of 139 to 140 °C. For the same compound, the “reduction of SARS-CoV-2 levels (viral load) in cell culture supernatant” value in the data set on SARS-CoV-2 [2] is given as 68%. For the same compound, the IC50 in the data set on SARS-CoV-2 pseudovirus stood at 49 ± 2.5 µM. In data set [1], it took 55 µM to reach half-maximal inhibition (IC50), the “concentration-dependent suppression of Spike RBD/ACE2 (19–615) interaction” value is “suppressed Spike RBD/ACE2 (19–615) interaction in a concentration-dependent manner” and the “effect on Spike RBD/ACE2” value is “suppressed the interaction”. In addition, the inhibition at 50 µM in data set [1] (setting [4]) came out at 81%. In addition, in the data set on SARS-CoV-2 [3], the “prevention of infection from the original SARS-CoV-2 in vitro” value is listed as “strongly prevented infection” and the “reduction of the cytopathic effect (CPE) of the virus” value was “approximately 90%”.

Consider `COc1cccc2c1[n+](C/C=C/c1ccc(Cl)cc1)cn2Cc1ccc2ccccc2c1.[Br-]`, for which the melting point lay within 228 to 229 °C.

As to `c1cnc2cc(Cn3cnc4ccccc43)ccc2c1` [CKP-36, 7-((1H-Benzo[d]imidazol-1-yl)methyl)quinoline], the melting point is 166 to 168 °C (dec.).

In the case of `Nc1cccc2c1ncn2Cc1ccc2cccnc2c1` [CKP-49, 1-(Quinolin-7-ylmethyl)-1H-benzo[d]imidazol-4-amine], the “effect on viral load in the cell culture supernatant (in words)” value in the data set on SARS-CoV-2 [2] is on record as “reduced the viral load”. Also, the inhibition at 50 µM in data set [1] (setting [4]) is 30%. The “effect on the cytopathic effect of SARS-CoV-2 (in words)” value (shortened to “effect on the cytopathic effect”) in the data set with SARS-CoV-2 [3] is “consistently reduced the cytopathic effect”.

`O=C(O)c1ccccc1C(=O)Nc1ccc(Oc2ccc3ccccc3c2)cc1` [compound 6052953, 2-({[4-(2-naphthyloxy)phenyl]amino}carbonyl)benzoic acid]: in data set [1], the “concentration-dependent suppression of Spike RBD/ACE2 (19–615) interaction” value was “suppressed Spike RBD/ACE2 (19–615) interaction in a concentration-dependent manner” and the “effect on Spike RBD/ACE2” value is “suppressed the interaction”.

On to `Nc1nc(-c2ccccc2)c(-c2ccc(-c3ccccc3)cc2)s1` [compound 6954709, 5-(4-biphenylyl)-4-phenyl-1,3-thiazol-2-amine], for which the “effect on Spike RBD/ACE2” value in data set [1] is “suppressed the interaction”.

In the data set with E. coli WP2 uvrA strain (10 μg/plate, +S9), `Nc1ccc2cc3ccccc3cc2c1` [2-aminoanthracene, reference compound] showed a mean revertants greater than 300.

The compound `COc1cccc2c1[n+](C/C=C/c1ccc([N+](=O)[O-])cc1)cn2Cc1ccc(-c2ccccc2)cc1.[Br-]` [CKP-40, (E)-1-([1,1′-Biphenyl]-4-ylmethyl)-4-methoxy-3-(3-(4-nitrophenyl)allyl)-1H-benzo[d]imidazol-3-ium Bromide] showed a melting point of 203 to 204 °C. The “activity on Spike RBD/ACE2” value in data set [1] was “active”. Further, the inhibition at 25 µM in data set [1] (setting [4]) was found to be 14%. Further, the “effect on the cytopathic effect” value in the data set on SARS-CoV-2 [3] was “not protective against SARS-CoV-2”.

The compound `COc1ccc(Cn2cnc3ccccc32)cc1OC` [CKP-24, 1-(3,4-Dimethoxybenzyl)-1H-benzo[d]imidazole] yielded a melting point of 131 to 132 °C.

Consider `COS(C)(=O)=O` [methyl methanesulfonate, reference compound], for which the mean revertants with E. coli WP2 uvrA strain (2.5 μL/plate, –S9) is given as greater than 300.

Take `COc1cccc2c1ncn2Cc1ccc(-c2ccccc2)cc1` [CKP-27, 1-([1,1′-Biphenyl]-4-ylmethyl)-4-methoxy-1H-benzo[d]imidazole]: the melting point fell in the range of 150 to 151 °C. For the same compound, in the data set with SARS-CoV-2 [2], the “effect on viral load in the cell culture supernatant (in words)” value is listed as “reduced the viral load”. Also, the inhibition at 25 µM in data set [1] (setting [4]) is 72%. Moreover, the “effect on the cytopathic effect” value in the data set on SARS-CoV-2 [3] is “consistently reduced the cytopathic effect”.

`c1ccc(-c2ccc(Cn3cnc4ccccc43)cc2)cc1` [CKP-23, 1-([1,1′-Biphenyl]-4-ylmethyl)-1H-benzo[d]imidazole] returned a melting point of 184 to 186 °C.

In the case of `c1ccc2cc(CCn3cnc4ccccc43)ccc2c1` [CKP-46, 1-(2-(Naphthalen-2-yl)ethyl)-1H-benzo[d]imidazole], the “activity on Spike RBD/ACE2” value in data set [1] was “activity was retained”. Moreover, the inhibition at 1 µM in data set [1] (setting [4]) worked out at 20%.

Regarding `COc1cccc2c1[n+](C/C=C/c1ccc(Cl)cc1)cn2Cc1ccc(-c2ccccc2)cc1.[Br-]`, the melting point was in the range of 205 to 206 °C.

In the case of `Cc1ccc[n+](CC(=O)c2ccc3c(c2)Cc2ccccc2-3)c1C.[Br-]` [compound 5315079, 1-[2-(9H-fluoren-2-yl)-2-oxoethyl]-2,3-dimethylpyridinium bromide], in data set [1], the “concentration-dependent suppression of Spike RBD/ACE2 (19–615) interaction” value was “suppressed Spike RBD/ACE2 (19–615) interaction in a concentration-dependent manner” and the “effect on Spike RBD/ACE2” value was “suppressed the interaction”.
